Test results reported in patent EP0791044B1, “HYDROPHOBIC PEROXYACID BLEACH PRECURSOR COMPOSITIONS STABILISED WITH A WATER SOLUBLE CARBOXYLIC ACID” (THE PROCTER & GAMBLE COMPANY, priority 1994, dated 1996).

Experiment: Beaker Perhydrolysis Test (Sotax Dissolution Tester) of model detergent formulation containing the precursor material
Assay type: physicochemical
Settings: for peroxyacid yield: percent of the theoretically available weight of peracid
Experimental: For the purpose of the present invention, unrestrained dissolution conditions are defined as those existing in the Beaker Perhydrolysis Test as carried out using a Sotax Dissolution Tester Model AT6 supplied by Sotax AG CH-4008 BASEL Switzerland. This Apparatus comprises an array of polycarbonate beakers, each capable of holding 1 litre of water, supported in a thermostatically controlled water bath. Each beaker is provided with a paddle stirrer whose speed can be controlled.
Add 5ml potassium iodide solution to the first titration beaker. • 7- Take a 10ml aliquot from Sotax beaker No. 1 and discharge into the first titration beaker at t=1 minute. • 8- Add the second sample to Sotax beaker No.2 at t= 1 minute and add 5 ml potassium iodide to a second titration beaker. • 9- Titrate the first aliquot against 0.005 M sodium thiosulphate solution until the solution is first decolourised (The colour is slowly regenerated as the solution warms and the perhydrate reacts with the iodide). • 10- Take a 10 ml aliquot from Sotax beaker No.2 at t= 2 minutes and discharge into the second titration beaker and repeat step . • 11- Take further aliquots at the following times (t= minutes)
The aliquots from Beaker No. 1 at 1 minute and from Beaker No. 2 at 2 minutes constitutes replicates and the results are averaged to give a figure from which the % perhydrolysis is calculated.
Material from each example was then incorporated into a model detergent formulation having the composition in % by weight.
The four formulations were then subjected to a Beaker Perhydrolysis Test as hereinbefore described and gave the peroxyacid yields shown in Table 1. Results are given for 1, 3, 5 & 10 minutes elapsed time and are expressed in percent of the theoretically available weight of peracid.

CCCCCCCCCC(=O)NCCCCCC(=O)Oc1ccc(S(=O)(=O)O)cc1 [C10 oxybenzenesulfonate (raw material), (6-decanamido-caproyl) oxybenzenesulfonate]
peroxyacid yield (3 minutes from start of perhydrolysis, Temperature = 30°C, hard water (25° Clarck)): 25% | peroxyacid yield (5 minutes from start of perhydrolysis, Temperature = 30°C, hard water (25° Clarck)): 31% | peroxyacid yield (10 minutes from start of perhydrolysis, Temperature = 30°C, hard water (25° Clarck)): 34%

benzoyl caprolactam [3 (benzoyl caprolactam)]
perhydrolysis rate (effect of agglomeration with citric acid versus raw material form, 40°C): No such enhancement | peroxyacid yield (1 minute from start of perhydrolysis, Temperature = 40°C, water 12° Clark): 14% | peroxyacid yield (3 minutes from start of perhydrolysis, Temperature = 40°C, water 12° Clark): 37% | peroxyacid yield (5 minutes from start of perhydrolysis, Temperature = 40°C, water 12° Clark): 52% | peroxyacid yield (10 minutes from start of perhydrolysis, Temperature = 40°C, water 12° Clark): 71%
